Source: US7504384B2 (priority 2000, dated 2009)
Where “and” joins values, the source holds several entries; their conditions need not be identical. Equal values may be shown once. Read-outs that look alike come from different tables or passages of the source.

Experiments:
[1] = system: cysteinyl leukotrienes (LTC4, LTD4 and LTE4); assay: Cysteinyl leukotriene level in BAL of OVA-induced asthmatic rats
mice = assay: Long-term (30 weeks) toxicity test; assay type: in vivo
Procedure: For the long-term toxicity test a group of 6 mice received an i.p injection of 100 mg Lipid-conjugate (Compound XXII)/kg body weight 3 times a week for 30 weeks (e.g., 180 mg total to a mouse weighing 20 g). Toxicity was evaluated as for Table 8.1. The results of the long-term toxicity test are depicted in Table 8.2.

[2] = system: OVA-sensitized asthmatic rats; assay: OVA-induced broncho-constriction (Penh) in asthmatic rats; assay type: in vivo, Brown Norway rats
Procedure: Subjects: Inbred Brown Norway male rats (4 weeks old) obtained from Harlan, USA, were used in this study. The Hebrew University Animal Welfare Committee approved all protocols.
In mode 1, all groups (5 rats in each) were treated and challenged as described above on day 14, 16, 18 and 20, and pulmonary function (Penh) was assessed on day 20 before and 5 min after challenge (EAR).
In mode 2, each group (10 rats in each) were treated and challenged from day 14, every other day, until day 45. Pulmonary function (Penh) was assessed on day 20 before and 5 min and 8 h after challenge, corresponding to early and late asthmatic reaction (EAR and LAR, respectively).
Assessment of broncho-constriction: Unrestrained conscious rats were placed in a whole-body plethysmograph (Buxco Electronics Inc., Troy, N.Y., USA) connected to a pneumotach (EMKA Technologies, Type 0000) at one end, and to a 10 ml bottle at the other end. The pneumotach was connected to a preamplifier (model MAX2270, Buxco Electronics). Analogue signals from the amplifier were converted to a digital signal by an AD card (LPM-16 National Instruments, Austin, Tex., USA). Broncho-constriction measures were expressed as the enhanced pause (Penh). Penh=(PEF/PIF)*((Te−Tr)/Tr), where PEF=Peak Expiratory Flow, PIF=Peak Inspiratory Flow, Te=Expiratory Time, Tr=Relaxation Time=time of the pressure decay to 36% of total box pressure during expiration.

[3] = system: rats with endotoxin-induced sepsis; assay: Rat survival in LPS-induced endotoxinemia; assay type: in vivo; settings: 100 mg/kg 3 hours before LPS (15 mg/kg i.p.) and 50 mg/kg with LPS; 48 hours
Procedure: Endotoxins administered to animals produce cardiovascular and multiorgan disorders that are similar to clinical sepsis. Thus, in the present study, a rat model was developed to test possible Lipid-conjugate effects on mediator production and mortality in endotoxin-induced Sepsis. Rats were intraperitoneally (i.p.) or intravenously (i.v.) injected with a Lipid-conjugate (Compound XXII, 100 mg/kg) dissolved in sterile saline or with sterile saline alone as placebo. After 3 hours, all rats received LPS (15 mg/kg i.p.; Escherichia coli 111:B44 LPS, Sigma, Deisenhofen, Germany). In rats that were pretreated with Compound XXII, LPS was injected together with a second dose of Compound XXII (50 mg/kg). The effect of Compound XXII on LPS injected rats was observed over a time period of 48 hours.

[4] = system: Madin Darby canine kidney (MDCK) cells; assay type: cell-based; settings: high concentration, Neutral Red Uptake Assay
[5] = system: Respiratory syncytial virus; assay type: cell-based, strain A2
[6] = system: Influenza A (H3N2 strain) virus; assay type: cell-based, Influenza type A, A/Panama/2007/99 (H3N2); settings: high concentration, Neutral Red Uptake Assay
Influenza B virus = assay type: cell-based, Influenza type B, B/Hong Kong/330/02; settings: high concentration; Visual Observation Assay; Influenza B
Punta Toro virus [7] = assay type: cell-based, strain Adames
[8] = system: Respiratory syncytial virus; assay type: cell-based, strain A2; remark: listed apart in the source
[9] = system: Influenza A (H1N1 strain) virus; assay type: cell-based, Influenza type A, A/New Caledonia/20/99 (H1N1)
[10] = system: Influenza A (H1N1 strain) virus; assay type: cell-based, Influenza type A, A/New Caledonia/20/99 (H1N1); settings: high concentration, Neutral Red Uptake Assay
Punta Toro virus [11] = assay type: cell-based, strain Adames; remark: listed apart in the source
[12] = system: Madin Darby canine kidney (MDCK) cells; assay: Cytotoxicity assay, visual observation, uninfected cells; assay type: cell-based; settings: high concentration
Procedure: Uninfected cells were treated with each concentration of test compound in duplicate and run in parallel with the infected, treated wells in the CPE inhibition tests described above. The toxicity control cells (uninfected and treated) were examined under a light microscope for changes in cell appearance compared to control cells (uninfected, untreated) on the same plate as described above. The 50% cell inhibitory (cytotoxic) concentrations (IC50) were calculated by regression analysis.

[13] = system: Influenza A (H3N2 strain) virus; assay type: cell-based, Influenza type A, A/Panama/2007/99 (H3N2)
[14] = 100 mg/kg i.p. 3 times/week for 30 weeks
[15] = listed as Influenza A (H1N1 strain)
[16] = listed as Influenza A (H3N2 strain)

In the case of “dipalmitoyl-PE conjugated to HA [Compound XXII]”, the “CysLT levels in BAL” value ([1]; SC administration, compared with Naive rats) is reported as “no significant difference”, the “CysLT levels in BAL” value ([1]; aerosol inhalation, compared with Naïve rats, P<0.01 vs Asthmatic) is reported as “no significant difference” and the mortality (mice; 100 mg/kg i.p. 3 times a week for 30 weeks) is reported as “no incidents of mortality”. For the same substance, the “changes in body weight, red or white blood cell count, or hematocrit” value (mice; 100 mg/kg i.p. 3 times a week for 30 weeks, compared to control, untreated mice) was “no significant changes”, the “Body weight (g) Final” value (mice; [14]) was 39.0 ± 2.7 g and the Hematocrit % (mice; [14]) was 43.4 ± 4.9%. The “RBC × 10^6” value (mice; [14]) was 11.7 ± 0.7 × 10^6, the “WBC × 10^3” value (mice; [14]) was 8.1 ± 15 × 10^3 and the “broncho-constriction (percent change of Penh), early asthmatic reaction (EAR)” value ([2]; aerosol inhalation, 5 min after challenge, compared with Naïve or Dx-treated groups, p<0.01 vs Asthmatic) was “no significant difference”. For the same substance, the “broncho-constriction (percent change of Penh), late asthmatic reaction (LAR)” value ([2]; aerosol inhalation, 8 h after challenge, compared with Naïve or Dx-treated groups, p<0.01 vs Asthmatic) was “no significant difference”, the “allergen-induced broncho-constriction (Penh), inhaled before OVA challenge” value ([2]; already asthmatic rats, nebulized 1 mg/ml for 5 minutes, 30 minutes before challenge) was “effective in preventing allergen-induced broncho-constriction” and the “broncho-constriction (Penh), inhaled after OVA challenge” value ([2]; asthmatic rats, nebulized 1 mg/ml for 5 minutes, thirty minutes after challenge) was “reverse broncho-constriction”. The “mortality rate among septic rats” value [3] was “markedly reduced the mortality rate”.

“dipalmitoyl-phosphatidyl-ethanolamine conjugated to heparin [Compound XXIV]” gave an IC50 [4, 15] of 64 µg/mL, an IC50 [4, 16] of 110 µg/mL and an IC50 ([4]; listed as Influenza B) of 220 µg/mL. For the same substance, the EC50 [5] was 4 µg/mL, the EC50 [6] was 900 µg/mL and the EC50 (Influenza B virus) was 350 µg/mL. For the same substance, the “SI (IC50/EC50)” value (Punta Toro virus [7]) was 0, the EC50 (Punta Toro virus [7]; low concentrations, Neutral Red Uptake Assay, Punta Toro A) was >100 µg/mL and the EC50 ([8]; low concentrations, Neutral Red Uptake Assay, Respiratory Syncytial A) was >100 µg/mL. For the same substance, the “activity vs RSV by neutral red assay” value ([8]; lower range of doses) was “not active”, the “SI (IC50/EC50)” value [9] was 20 and 11 and the EC50 ([9]; high concentration, Visual Observation Assay, Influenza A (H1N1 strain)) was 400 µg/mL. For the same substance, the EC50 [10] was 1000 µg/mL, the “SI (IC50/EC50)” value (Punta Toro virus [11]) was 0 and the EC50 (Punta Toro virus [11]; low concentrations, Visual Observation Assay, Punta Toro A) was >100 µg/mL. For the same substance, the “virus inhibitory effect against Punta Toro virus” value (Punta Toro virus [11]; lower range of doses, at the concentrations tested) was “did not display a virus inhibitory effect”, the IC50 [12, 15] was 35 µg/mL and the IC50 [12, 16] was 100 µg/mL. For the same substance, the IC50 ([12]; listed as Influenza B) was 90 µg/mL, the “SI (IC50/EC50)” value [13] was 2.9 and 2 and the EC50 ([13]; high concentration, Visual Observation Assay, Influenza A (H3N2 strain)) was 200 µg/mL.
